Measurements: patent US10385063B2, “Herbicidal compounds” (Syngenta Participations AG, priority 2015, dated 2019)

Legend:
Assay in all cases: Post-emergence efficacy, glasshouse pot test
Assay type in all cases: in vivo
Conditions in all cases: evaluated after 13 days
[1] = tested on: Amaranthus retoflexus (AMARE)
Description: (§1) B1 Post-emergence Efficacy Seeds of a variety of test species are sown in standard soil in pots:— Solanum nigrum (SOLNI), Amaranthus retoflexus (AMARE), Setaria faberi (SETFA), Echinochloa crus-galli (ECHCG), Ipomoea hederacea (IPOHE), Lolium perenne (LOLPE). After 8 days cultivation (post-emergence) under controlled conditions in a glasshouse (at 24/16° C., day/night; 14 hours light; 65% humidity), the plants are sprayed with an aqueous spray solution derived from the formulation of the technical active ingredient in acetone/water (50:50) solution containing 0.5% Tween 20 (polyoxyethylene sorbitan monolaurate, CAS RN 9005-64-5). Compounds are applied at 1000 g/ha and 250 g/ha. The test plants are then grown in a glasshouse under controlled conditions in a glasshouse (at 24/16° C., day/night; 14 hours light; 65% humidity) and watered twice daily. After 13 days, the test is evaluated for the percentage damage caused to the plant. The biological activities are shown below in Table B1, on a five point scale (5=80-100%; 4=60-79%; 3=40-59%; 2=20-39%; 1=0-19%).

[2] = tested on: Echinochloa crus-galli (ECHCG)
Description: as §1

[3] = tested on: Ipomoea hederacea (IPOHE)
Description: as §1

Lolium perenne (LOLPE) = tested on: Lolium perenne (LOLPE)
Description: as §1

Setaria faberi (SETFA) = tested on: Setaria faberi (SETFA)
Description: as §1

Solanum nigrum (SOLNI) = tested on: Solanum nigrum (SOLNI)
Description: as §1

CC1(C)c2nccnc2C(=O)C(c2c(F)ccc(Cl)c2OCc2ccccc2)S1(=O)=O (stereo not drawn) [Compound 1.08, 7-(2-benzyloxy-3-chloro-6-fluoro-phenyl)-5,5-dimethyl-6,6-dioxo-thiopyrano[3,4-b]pyrazin-8-ol]
4 (4=60-79%): percentage damage caused to the plant, ECHCG (five point scale) ([2]; 250 g/Ha)
5 (5=80-100%): percentage damage caused to the plant, AMARE (five point scale) ([1]; 250 g/Ha) | percentage damage caused to the plant, AMARE (five point scale) ([1]; 1000 g/Ha) | percentage damage caused to the plant, ECHCG (five point scale) ([2]; 1000 g/Ha) | percentage damage caused to the plant, IPOHE (five point scale) ([3]; 250 g/Ha) | percentage damage caused to the plant, IPOHE (five point scale) ([3]; 1000 g/Ha) | percentage damage caused to the plant, LOLPE (five point scale) (Lolium perenne (LOLPE); 250 g/Ha) | percentage damage caused to the plant, LOLPE (five point scale) (Lolium perenne (LOLPE); 1000 g/Ha) | percentage damage caused to the plant, SETFA (five point scale) (Setaria faberi (SETFA); 250 g/Ha) | percentage damage caused to the plant, SETFA (five point scale) (Setaria faberi (SETFA); 1000 g/Ha) | percentage damage caused to the plant, SOLNI (five point scale) (Solanum nigrum (SOLNI); 250 g/Ha) | percentage damage caused to the plant, SOLNI (five point scale) (Solanum nigrum (SOLNI); 1000 g/Ha)

O=C1c2nccnc2CS(=O)(=O)C1c1c(Cl)ccc(Cl)c1OCc1ccccc1 (stereo not drawn) [Compound 1.13]
5 (5=80-100%): percentage damage caused to the plant, AMARE (five point scale) ([1]; 250 g/Ha) | percentage damage caused to the plant, AMARE (five point scale) ([1]; 1000 g/Ha) | percentage damage caused to the plant, ECHCG (five point scale) ([2]; 250 g/Ha) | percentage damage caused to the plant, ECHCG (five point scale) ([2]; 1000 g/Ha) | percentage damage caused to the plant, IPOHE (five point scale) ([3]; 250 g/Ha) | percentage damage caused to the plant, IPOHE (five point scale) ([3]; 1000 g/Ha) | percentage damage caused to the plant, LOLPE (five point scale) (Lolium perenne (LOLPE); 250 g/Ha) | percentage damage caused to the plant, LOLPE (five point scale) (Lolium perenne (LOLPE); 1000 g/Ha) | percentage damage caused to the plant, SETFA (five point scale) (Setaria faberi (SETFA); 250 g/Ha) | percentage damage caused to the plant, SETFA (five point scale) (Setaria faberi (SETFA); 1000 g/Ha) | percentage damage caused to the plant, SOLNI (five point scale) (Solanum nigrum (SOLNI); 250 g/Ha) | percentage damage caused to the plant, SOLNI (five point scale) (Solanum nigrum (SOLNI); 1000 g/Ha)

CC1(C)C(=O)C(c2c(F)ccc(Cl)c2OCc2ccccc2)C(=O)c2nccnc21 (stereo not drawn) [Compound 1.02]
5 (5=80-100%): percentage damage caused to the plant, AMARE (five point scale) ([1]; 250 g/Ha) | percentage damage caused to the plant, AMARE (five point scale) ([1]; 1000 g/Ha) | percentage damage caused to the plant, ECHCG (five point scale) ([2]; 250 g/Ha) | percentage damage caused to the plant, ECHCG (five point scale) ([2]; 1000 g/Ha) | percentage damage caused to the plant, IPOHE (five point scale) ([3]; 250 g/Ha) | percentage damage caused to the plant, IPOHE (five point scale) ([3]; 1000 g/Ha) | percentage damage caused to the plant, LOLPE (five point scale) (Lolium perenne (LOLPE); 250 g/Ha) | percentage damage caused to the plant, LOLPE (five point scale) (Lolium perenne (LOLPE); 1000 g/Ha) | percentage damage caused to the plant, SETFA (five point scale) (Setaria faberi (SETFA); 250 g/Ha) | percentage damage caused to the plant, SETFA (five point scale) (Setaria faberi (SETFA); 1000 g/Ha) | percentage damage caused to the plant, SOLNI (five point scale) (Solanum nigrum (SOLNI); 250 g/Ha) | percentage damage caused to the plant, SOLNI (five point scale) (Solanum nigrum (SOLNI); 1000 g/Ha)

CC1(C)C(=O)C(c2c(Cl)ccc(Cl)c2OCc2ccccc2)C(=O)c2nccnc21 (stereo not drawn) [Compound 1.01, 7-(2-benzyloxy-3,6-dichloro-phenyl)-8-hydroxy-5,5-dimethyl-quinoxalin-6-one]
5 (5=80-100%): percentage damage caused to the plant, AMARE (five point scale) ([1]; 250 g/Ha) | percentage damage caused to the plant, AMARE (five point scale) ([1]; 1000 g/Ha) | percentage damage caused to the plant, ECHCG (five point scale) ([2]; 250 g/Ha) | percentage damage caused to the plant, ECHCG (five point scale) ([2]; 1000 g/Ha) | percentage damage caused to the plant, IPOHE (five point scale) ([3]; 250 g/Ha) | percentage damage caused to the plant, IPOHE (five point scale) ([3]; 1000 g/Ha) | percentage damage caused to the plant, LOLPE (five point scale) (Lolium perenne (LOLPE); 250 g/Ha) | percentage damage caused to the plant, LOLPE (five point scale) (Lolium perenne (LOLPE); 1000 g/Ha) | percentage damage caused to the plant, SETFA (five point scale) (Setaria faberi (SETFA); 250 g/Ha) | percentage damage caused to the plant, SETFA (five point scale) (Setaria faberi (SETFA); 1000 g/Ha) | percentage damage caused to the plant, SOLNI (five point scale) (Solanum nigrum (SOLNI); 250 g/Ha) | percentage damage caused to the plant, SOLNI (five point scale) (Solanum nigrum (SOLNI); 1000 g/Ha)
